For orientation: kcat means the number of substrate molecules converted per active site and unit of time at saturation. By kcat/Km is commonly meant the turnover number divided by the Michaelis constant.

Results on five molecules are retold here after paper PMC6298115, “Design and in vitro realization of carbon-conserving photorespiration” (Proceedings of the National Academy of Sciences of the …, 2018).

Series [1] addresses T1, RpPduP (Rhodopseudomonas palustris, UniProt Q21A49).
T1 construct: gene RPC_1174; N-terminal 6xHis, pET45a, expressed in E. coli BL21(DE3), Ni-NTA
As to the kind of experiment: NADPH oxidation, absorbance at […] nm. The series is classed as biochemical. The following applies: pH 8.0 Hepes, 37 °C, 5 mM MgCl2.

The target of series [2] is T2, RpPduP (Rhodopseudomonas palustris, UniProt Q21A49, P164G/I199R/N203L/I222L/L268I/P269T/V271T/L423H, form not given).
T2 construct: gene RPC_1174; N-terminal 6xHis, pET45a, expressed in E. coli BL21(DE3), Ni-NTA
T2 sequence (Q21A49 entry or part of it P164G/I199R/N203L/I222L/L268I/P269T/V271T/L423H, form open): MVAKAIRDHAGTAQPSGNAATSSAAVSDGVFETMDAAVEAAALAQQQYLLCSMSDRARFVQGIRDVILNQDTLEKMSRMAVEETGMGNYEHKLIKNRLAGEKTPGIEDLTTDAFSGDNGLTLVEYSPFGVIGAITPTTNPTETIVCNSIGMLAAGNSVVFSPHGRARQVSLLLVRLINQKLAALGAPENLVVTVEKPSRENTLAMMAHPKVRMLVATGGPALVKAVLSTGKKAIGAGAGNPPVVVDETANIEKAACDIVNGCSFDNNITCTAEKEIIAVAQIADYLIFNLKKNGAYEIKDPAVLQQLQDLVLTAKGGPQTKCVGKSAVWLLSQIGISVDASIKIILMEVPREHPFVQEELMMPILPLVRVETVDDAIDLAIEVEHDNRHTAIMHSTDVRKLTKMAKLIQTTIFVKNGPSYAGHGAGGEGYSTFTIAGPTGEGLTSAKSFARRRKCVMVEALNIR
The series can be described thus: NADPH oxidation, absorbance at […] nm. The series is classed as biochemical. The settings on record: GCR, pH 8.0 Hepes, 37 °C, 5 mM MgCl2, Table 2 note numbers mutations +2, read-out: Engineered GCR.

For series [3], the target named is T2, RpPduP. As to the kind of experiment: NADH oxidation, absorbance at […] nm. The series is classed as biochemical. The following applies: GCR; saturating acetyl-CoA; pH 8.0 Hepes, 37 °C, 5 mM MgCl2; Table 2 note numbers mutations +2; read-out: Engineered GCR.
Series [4] addresses T1, RpPduP. As to the kind of experiment: NADH oxidation, absorbance at […] nm. The series is classed as biochemical. The following applies: pH 8.0 Hepes, 37 °C, 5 mM MgCl2.
Substrate in series [5]: CC(=O)O
The series can be described thus: purified protein. The following applies: 1 mM CoA, 2.5 mM ATP, 5 mM MgCl2, 1 mM DTT, pH 8.0 Hepes, 37 °C.

T1 sequence (Q21A49 entry or part of it): as the sequence (Q21A49 entry or part of it P164G/I199R/N203L/I222L/L268I/P269T/V271T/L423H, form open) above, with G164P, R199I, L203N, L222I, I268L, T269P, T271V, H423L counted along it

Turning to `NC(=O)C1=CN([C@@H]2O[C@H](COP(=O)(O)OP(=O)(O)OC[C@H]3O[C@@H](n4cnc5c(N)ncnc54)[C@H](OP(=O)(O)O)[C@@H]3O)[C@@H](O)[C@H]2O)C=CC1` [NADPH], the Km in series [1] (saturating glycolyl-CoA) was 370 ± 90 µM; in series [2] (saturating glycolyl-CoA) it was 240 ± 60 µM.
For `NC(=O)C1=CN([C@@H]2O[C@H](COP(=O)(O)OP(=O)(O)OC[C@H]3O[C@@H](n4cnc5c(N)ncnc54)[C@H](O)[C@@H]3O)[C@@H](O)[C@H]2O)C=CC1` [NADH], the values for the Km in series [3] and in series [4] (saturating acetyl-CoA) were 70 ± 10 µM and 120 ± 30 µM, respectively.
Turning to `CC(=O)SCCNC(=O)CCNC(=O)[C@H](O)C(C)(C)COP(=O)(O)OP(=O)(O)OC[C@H]1O[C@@H](n2cnc3c(N)ncnc32)[C@H](O)[C@@H]1OP(=O)(O)O` [acetyl-CoA], the Km turned out to be 220 ± 20 µM in series [1] (saturating NADPH) and 220 ± 60 µM in series [2] (saturating NADPH).
As for `CC(C)(COP(=O)(O)OP(=O)(O)OC[C@H]1O[C@@H](n2cnc3c(N)ncnc32)[C@H](O)[C@@H]1OP(=O)(O)O)[C@@H](O)C(=O)NCCC(=O)NCCSC(=O)CO` [glycolyl-CoA], the Km in series [4] (saturating NADH) was 220 ± 120 µM; in series [2] (saturating NADPH) it was 240 ± 20 µM.

B1: EcACS (Escherichia coli K-12) (protein)
chain: MSQIHKHTIPANIADRCLINPQQYEAMYQQSINVPDTFWGEQGKILDWIKPYQKVKNTSFAPGNVSIKWYEDGTLNLAANCLDRHLQENGDRTAIIWEGDDASQSKHISYKELHRDVCRFANTLLELGIKKGDVVAIYMPMVPEAAVAMLACARIGAVHSVIFGGFSPEAVAGRIIDSNSRLVITSDEGVRAGRSIPLKKNVDDALKNPNVTSVEHVVVLKRTGGKIDWQEGRDLWWHDLVEQASDQHQAEEMNAEDPLFILYTSGSTGKPKGVLHTTGGYLVYAALTFKYVFDYHPGDIYWCTADVGWVTGHSYLLYGPLACGATTLMFEGVPNWPTPARMAQVVDKHQVNILYTAPTAIRALMAEGDKAIEGTDRSSLRILGSVGEPINPEAWEWYWKKIGNEKCPVVDTWWQTETGGFMITPLPGATELKAGSATRPFFGVQPALVDNEGNPLEGATEGSLVITDSWPGQARTLFGDHERFEQTYFSTFKNMYFSGDGARRDEDGYYWITGRVDDVLNVSGHRLGTAEIESALVAHPKIAEAAVVGIPHNIKGQAIYAYVTLNHGEEPSPELYAEVRNWVRKEIGPLATPDVLHWTDSLPKTRSGKIMRRILRKIAAGDTSNLGDTSTLADPGVVEKLLEEKQAIAMPS
As for B1, in series [5], the Km was found to be 87 ± 4 µM, the kcat turned out to be 13.5 s⁻¹ and the kcat/Km was determined as 155000 M⁻¹ s⁻¹.
